Entries after “also recorded” stand apart in the source; their conditions may differ.
Key:
[1] = PBPK model simulation of maribavir alone; set-up: species or system human
Procedure: A Physiologically-based Pharmacokinetic (“PBPK”) model based on prior in vitro and in vivo information on the metabolism and kinetics of maribavir was constructed with the aim of predicting plasma concentration-time profiles of maribavir and to evaluate the likely impact of coadministration of CYP3A4 inhibitors and inducers on the kinetics of maribavir in healthy subjects.
(§1) A combination of in vitro data and clinical pharmacokinetic data obtained following a single dose of 400 mg maribavir were used to develop the PBPK model. […] The Cmax was marginally under predicted, which could be expected because the PBPK model was optimized for better prediction of C12h.
Distribution models evaluated included a full PBPK model and a minimal PBPK model, both of which consider liver and intestinal metabolism. Mass balance data from the [^14C] ADME study indicated a fraction absorbed of 0.83 or greater following oral administration of 400 mg dose of maribavir. Absorption models evaluated included a simple first-order absorption model and a more mechanistic “Advanced Dissolution Absorption and Metabolism” (ADAM) model.
(§2) A comparison of observed and predicted plasma concentrations of maribavir following single oral doses of 800 mg and 1600 mg to healthy patients […]. […] The simulated and observed maribavir concentrations were in reasonable agreement.
(§3) A comparison of observed and predicted plasma concentrations of maribavir following multiple oral 400 mg BID doses of maribavir was performed. […] The simulated and observed maribavir concentrations were in reasonable agreement.

clinical = details: human, in vivo; for AUC(0-t): AUC(0-12 h)
Procedure: as §1, §2, §3

CYP1A2 mRNA = format: in vitro ADME; details: human, hepatocytes, 72 h
Procedure: (§4) Fresh human hepatocytes were treated with culture medium with maribavir concentrations of 36 μM, 144 μM, and 480 μM. […] Incubation was conducted at 37° C. for 72 hours, with daily replacement of medium with compound. […] Analysis of CYP expression was performed using qPCR with CYP-specific probes.

CYP2B6 mRNA = format: in vitro ADME; details: human, hepatocytes, 72 h
Procedure: as §4

CYP2C19 = CYP2C19 (Homo sapiens, UniProt P33261); assay: Time-dependent CYP inhibition (IC50 shift, 30 minute pre-incubation with HLM +/- NADPH); format: in vitro ADME; set-up: from tissue; details: up to 100 μM
Procedure: (§5) Time-dependent inhibition (TDI) potentials for various CYP enzymes were evaluated by a 30 minute pre-incubation of maribavir with HLM in the presence and absence of nicotinamide-adenine dinucleotide […] (NADPH) followed by a CYP enzyme activity assay.

CYP2C9 = CYP2C9 (Homo sapiens, UniProt P11712); assay: as above; format: in vitro ADME; set-up: from tissue; details: up to 100 μM
Procedure: as §5

CYP2D6 = CYP2D6 (Homo sapiens, UniProt P10635); assay: as above; format: in vitro ADME; set-up: from tissue; details: up to 100 μM
Procedure: as §5

CYP1A2 = biological target: T1, CYP1A2 (Homo sapiens, UniProt P05177); assay: as above; format: in vitro ADME; set-up: from tissue; details: up to 100 μM
T1 sequence (P05177 1-516): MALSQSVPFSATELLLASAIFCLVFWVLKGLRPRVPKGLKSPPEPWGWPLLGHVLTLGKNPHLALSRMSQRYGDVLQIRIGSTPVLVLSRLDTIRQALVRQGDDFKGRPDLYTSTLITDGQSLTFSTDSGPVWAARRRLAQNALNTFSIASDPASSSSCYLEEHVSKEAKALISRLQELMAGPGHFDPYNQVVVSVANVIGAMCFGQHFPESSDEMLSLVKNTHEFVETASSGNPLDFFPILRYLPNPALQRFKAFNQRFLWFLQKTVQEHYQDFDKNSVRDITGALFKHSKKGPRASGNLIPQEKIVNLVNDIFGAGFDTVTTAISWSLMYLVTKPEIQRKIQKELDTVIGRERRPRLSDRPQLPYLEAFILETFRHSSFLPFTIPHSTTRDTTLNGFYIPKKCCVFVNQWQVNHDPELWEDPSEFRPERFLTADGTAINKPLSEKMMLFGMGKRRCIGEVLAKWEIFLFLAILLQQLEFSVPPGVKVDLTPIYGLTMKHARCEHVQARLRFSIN
Procedure: as §5

CYP2C8 = biological target: T2, CYP2C8 (Homo sapiens, UniProt P10632); assay: as above; format: in vitro ADME; set-up: from tissue; details: up to 100 μM
T2 sequence (P10632 1-490): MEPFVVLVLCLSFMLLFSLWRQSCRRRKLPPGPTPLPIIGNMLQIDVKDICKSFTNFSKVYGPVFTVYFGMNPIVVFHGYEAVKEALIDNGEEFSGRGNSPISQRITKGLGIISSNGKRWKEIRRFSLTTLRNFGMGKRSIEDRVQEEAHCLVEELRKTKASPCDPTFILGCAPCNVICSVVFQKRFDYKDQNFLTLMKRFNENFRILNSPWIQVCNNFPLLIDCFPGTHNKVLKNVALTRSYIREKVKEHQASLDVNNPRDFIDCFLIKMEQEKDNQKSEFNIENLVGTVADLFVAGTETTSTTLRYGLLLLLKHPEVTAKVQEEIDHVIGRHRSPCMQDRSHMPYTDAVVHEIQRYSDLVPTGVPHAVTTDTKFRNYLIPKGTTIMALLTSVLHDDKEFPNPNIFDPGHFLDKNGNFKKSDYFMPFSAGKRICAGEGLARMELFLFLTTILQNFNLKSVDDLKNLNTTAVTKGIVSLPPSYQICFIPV
Procedure: as §5

[2] = maribavir 400 mg BID alone (Table 7A)
[3] = maribavir 400 mg BID, 5 doses (Table 5A)
[4] = maribavir 400 mg single dose alone (Table 6A)
[5] = maribavir 400 mg single oral dose
[6] = maribavir 800 mg single oral dose
[7] = maribavir 1600 mg single oral dose
[8] = 400 mg, observed Geometric mean

Sequence of CYP2D6 (P10635 whole entry): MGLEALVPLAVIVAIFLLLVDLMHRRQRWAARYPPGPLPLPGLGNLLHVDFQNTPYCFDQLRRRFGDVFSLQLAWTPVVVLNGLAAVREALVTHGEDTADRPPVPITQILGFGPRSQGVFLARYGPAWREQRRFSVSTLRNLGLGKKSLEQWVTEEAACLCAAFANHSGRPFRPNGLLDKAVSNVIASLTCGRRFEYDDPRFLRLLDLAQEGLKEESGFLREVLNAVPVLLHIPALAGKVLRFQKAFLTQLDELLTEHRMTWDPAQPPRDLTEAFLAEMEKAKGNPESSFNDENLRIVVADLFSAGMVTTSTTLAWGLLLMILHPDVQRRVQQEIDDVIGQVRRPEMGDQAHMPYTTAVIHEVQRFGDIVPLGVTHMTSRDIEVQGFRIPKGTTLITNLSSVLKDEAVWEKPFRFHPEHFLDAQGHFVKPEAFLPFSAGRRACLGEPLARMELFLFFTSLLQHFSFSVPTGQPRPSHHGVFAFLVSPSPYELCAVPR
Sequence of CYP2C9 (P11712 whole entry): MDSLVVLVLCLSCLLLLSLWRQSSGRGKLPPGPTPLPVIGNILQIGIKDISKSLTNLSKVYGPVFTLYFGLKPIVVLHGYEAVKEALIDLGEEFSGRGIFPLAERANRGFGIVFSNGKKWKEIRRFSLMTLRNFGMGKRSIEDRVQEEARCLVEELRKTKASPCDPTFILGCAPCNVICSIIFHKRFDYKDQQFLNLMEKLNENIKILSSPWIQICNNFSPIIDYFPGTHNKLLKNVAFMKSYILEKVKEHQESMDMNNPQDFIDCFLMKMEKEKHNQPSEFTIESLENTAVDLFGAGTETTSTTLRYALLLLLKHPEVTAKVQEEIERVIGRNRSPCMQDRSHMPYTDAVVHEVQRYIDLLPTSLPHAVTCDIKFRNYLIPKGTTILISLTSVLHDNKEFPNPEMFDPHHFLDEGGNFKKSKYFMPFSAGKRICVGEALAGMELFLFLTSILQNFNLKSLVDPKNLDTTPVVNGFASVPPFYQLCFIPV
Sequence of CYP2C19 (P33261 whole entry): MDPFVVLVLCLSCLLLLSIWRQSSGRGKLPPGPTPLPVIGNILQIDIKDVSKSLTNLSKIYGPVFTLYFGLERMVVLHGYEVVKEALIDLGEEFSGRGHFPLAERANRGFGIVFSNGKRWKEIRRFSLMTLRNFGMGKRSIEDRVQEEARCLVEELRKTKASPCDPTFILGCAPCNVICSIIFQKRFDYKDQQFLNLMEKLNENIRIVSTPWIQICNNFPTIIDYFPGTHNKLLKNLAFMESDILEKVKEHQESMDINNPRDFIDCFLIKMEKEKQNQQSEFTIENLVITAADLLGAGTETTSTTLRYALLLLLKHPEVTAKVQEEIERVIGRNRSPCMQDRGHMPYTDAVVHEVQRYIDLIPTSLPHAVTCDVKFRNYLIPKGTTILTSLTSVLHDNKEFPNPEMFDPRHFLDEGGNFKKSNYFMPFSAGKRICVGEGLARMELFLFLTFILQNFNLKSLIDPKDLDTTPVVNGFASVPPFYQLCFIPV

Question: Which “AUC(0-12 h), RATIO GEOMETRIC MEAN PREDICTED/OBSERVED” value [1, 2] does the source give for `CC(C)Nc1nc2cc(Cl)c(Cl)cc2n1[C@H]1O[C@@H](CO)[C@H](O)[C@@H]1O` [maribavir, (2S,3S,4R,5S)-2-(5,6-dichloro-2-(isopropylamino)-1H-benzo[d]imidazol-1-yl)-5-(hydroxymethyl)tetrahydrofuran-3,4-diol] here?
Answer: The value was 1.03.

Question: And the “AUC(0-12 h), RATIO MEAN PREDICTED/OBSERVED” value [1, 2]?
Answer: Its value is 1.06.

Question: And the “C12 h, RATIO GEOMETRIC MEAN PREDICTED/OBSERVED” value [1, 2]?
Answer: The value was 0.92.

Question: What about the “C12 h, RATIO MEAN PREDICTED/OBSERVED” value [1, 2] of the same compound?
Answer: The value was 1.14.

Question: And the “Cmax, RATIO GEOMETRIC MEAN PREDICTED/OBSERVED” value [1, 2]?
Answer: The value was 0.85.

Question: What about the “Cmax, RATIO MEAN PREDICTED/OBSERVED” value [1, 2] of the same compound?
Answer: The value was 0.84.

Question: What about the “AUC(0-∞), RATIO MEAN PREDICTED/OBSERVED” value [1, 3] of the same compound?
Answer: Its value is 1.07.

Question: What about the “C12 h, RATIO MEAN PREDICTED/OBSERVED” value [1, 3] of the same compound?
Answer: Its value is 1.18.

Question: What about the “Cmax, RATIO MEAN PREDICTED/OBSERVED” value [1, 3] of the same compound?
Answer: Its value is 0.85.

Question: And the “AUC(0-∞), GEOMEAN RATIO PREDICTED/OBSERVED” value [1, 4]?
Answer: The value was 0.78.

Question: What about the “AUC(0-∞), MEAN RATIO PREDICTED/OBSERVED” value [1, 4] of the same compound?
Answer: Its value is 0.79.

Question: What about the “Cmax, GEOMEAN RATIO PREDICTED/OBSERVED” value [1, 4] of the same compound?
Answer: Its value is 0.61.

Question: What about the “Cmax, MEAN RATIO PREDICTED/OBSERVED” value [1, 4] of the same compound?
Answer: The value was 0.62.

Question: And the “AUC(0-∞), RATIO MEAN PREDICTED/OBSERVED” value [1, 5]?
Answer: The value was 1.00.

Question: What about the “Cmax, RATIO MEAN PREDICTED/OBSERVED” value [1, 5] of the same compound?
Answer: The value was 0.72.

Question: And the “AUC(0-∞), RATIO MEAN PREDICTED/OBSERVED” value [1, 6]?
Answer: The value was 1.07.

Question: What about the “Cmax, RATIO MEAN PREDICTED/OBSERVED” value [1, 6] of the same compound?
Answer: Its value is 0.91.

Question: What about the “AUC(0-∞), RATIO MEAN PREDICTED/OBSERVED” value [1, 7] of the same compound?
Answer: Its value is 0.90.

Question: What about the “Cmax, RATIO MEAN PREDICTED/OBSERVED” value [1, 7] of the same compound?
Answer: The value was 0.99.

Question: What about the “AUC(0-∞), observed Mean” value (clinical; 400 mg) of the same compound?
Answer: The value was 126 µg·h/mL.

Question: What about the AUC(0-t) (clinical; 400 mg, observed) of the same compound?
Answer: Its AUC(0-t) is 86.6 µg·h/mL.

Question: What about the AUC(0-t) (clinical; 400 mg, observed Mean) of the same compound?
Answer: The AUC(0-t) was 89.9 µg·h/mL.

Question: What about the AUC(0-inf) (clinical; [8]) of the same compound?
Answer: The AUC(0-inf) was 119 µg·h/mL.

Question: What about the AUC(0-inf) (clinical; 400 mg, observed Mean) of the same compound?
Answer: Its AUC(0-inf) is 89.9 µg·h/mL.

Question: And the Cmax (clinical; [8])?
Answer: The Cmax was 19.4 µg/mL.

Question: And the Cmax (clinical; 400 mg, observed Mean)?
Answer: Its Cmax is 16.9 µg/mL.

Question: What about the Cmax (clinical; 400 mg, observed, row headed % CV) of the same compound?
Answer: Its Cmax is 16.2 µg/mL.

Question: What about the AUC(0-inf) (clinical; po, 400 mg, observed Mean) of the same compound?
Answer: Its AUC(0-inf) is 97.8 µg·h/mL.

Question: What about the Cmax (clinical; po, 400 mg, observed Mean) of the same compound?
Answer: The Cmax was 16.7 µg/mL.

Question: And the AUC(0-inf) (clinical; po, 800 mg, observed Mean)?
Answer: The AUC(0-inf) was 183 µg·h/mL.

Question: And the Cmax (clinical; po, 800 mg, observed Mean)?
Answer: Its Cmax is 26.4 µg/mL.

Question: And the AUC(0-inf) (clinical; po, 1600 mg, observed Mean)?
Answer: The AUC(0-inf) was 437 µg·h/mL.

Question: What about the Cmax (clinical; po, 1600 mg, observed Mean) of the same compound?
Answer: The Cmax was 48.8 µg/mL.

Question: What about the “CYP1A2 mRNA induction, % of the levels of positive controls” value (CYP1A2 mRNA) of the same compound?
Answer: The value was at most 11%.

Question: What about the “CYP2B6 mRNA induction, % of the levels of positive controls” value (CYP2B6 mRNA) of the same compound?
Answer: The value was at most 11%.

Question: What about the “time-dependent inhibition (TDI) of CYP2C19” value (CYP2C19) of the same compound?
Answer: Its value is “not a time-dependent inhibitor; also recorded: unlikely a TDI”.

Question: What about the “time-dependent inhibition (TDI) of CYP2C9” value (CYP2C9) of the same compound?
Answer: Its value is “not a time-dependent inhibitor; also recorded: unlikely a TDI”.

Question: And the “time-dependent inhibition (TDI) of CYP2D6” value (CYP2D6)?
Answer: The value was “not a time-dependent inhibitor; also recorded: unlikely a TDI”.

Question: What about the “time-dependent inhibition (TDI) of CYP1A2” value (CYP1A2) of the same compound?
Answer: The value was “not a time-dependent inhibitor; also recorded: unlikely a TDI”.

Question: And the “time-dependent inhibition (TDI) of CYP2C8” value (CYP2C8)?
Answer: Its value is “not a time-dependent inhibitor; also recorded: unlikely a TDI”.
